# Data: patent publication US9895344B2, “Treating various disorders with 7,8-dihydroxyflavone and derivatives thereof” (EMORY UNIVERSITY, priority 2008, dated 2018)
# Biological target: T1, TrkB intracellular domain (ICD) (Rattus norvegicus, UniProt Q63604)
# T1 construct: purified TrkB extracellular domain (ECD) and intracellular domain (ICD) recombinant proteins
# Test: In vitro binding assay with [3H]7,8-dihydroxyflavone: TrkB ICD
# Conditions: gradual increments of [3H]-7,8-dihydroxyflavone
# Experimental: To determine whether 7,8-dihydroxyflavone physically and directly binds the TrkB receptor, in vitro binding assays were conducted with purified TrkB extracellular domain (ECD) and intracellular domain (ICD) recombinant proteins. Purified TrkB ECD and ICD (10 μg of each) were incubated with different concentrations of ^3H-7,8-dihydroxyflavone in 1 ml of binding buffer (0.05M Na/K phosphate buffer, pH 7.1, 200 mM NaCl) at 4° C. for 10 minutes. After the incubation, the reaction mixture was loaded on filter paper. The mixture was washed three times with Tris buffer (100 mM Tris, pH 7.1), and the dried filter paper was put into a small vial and subjected to liquid scintillation counter analysis. […] The value of the dissociate constant and the number of sites were obtained from Scatchard plots using the equation r/[L]free=n/Kd−r/Kd, where r is the ratio of the concentration of bound ligand to the total protein concentration and n is the number of binding sites.
# T1 sequence (Q63604 454-821 limits assumed): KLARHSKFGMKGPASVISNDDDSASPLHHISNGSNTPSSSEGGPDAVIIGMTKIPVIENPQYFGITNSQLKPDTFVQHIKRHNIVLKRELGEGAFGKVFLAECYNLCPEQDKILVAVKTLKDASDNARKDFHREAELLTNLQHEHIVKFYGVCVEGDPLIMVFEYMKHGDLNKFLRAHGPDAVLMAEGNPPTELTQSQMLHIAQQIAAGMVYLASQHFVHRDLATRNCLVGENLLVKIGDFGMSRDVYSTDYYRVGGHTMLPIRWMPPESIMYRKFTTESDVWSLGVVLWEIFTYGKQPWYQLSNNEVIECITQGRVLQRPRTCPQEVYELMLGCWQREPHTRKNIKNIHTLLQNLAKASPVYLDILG
structure (smiles),measurement,value
"O=c1cc(-c2ccccc2)oc2c(O)c(O)ccc12 [7,8-dihydroxyflavone]",binding to TrkB ICD,not ICD
